Experimental data reported in publication PMC3760505 (Bioorganic & medicinal chemistry letters, 2009).

What was measured:
in vitro = settings: human, Jurkat cells
rhodesain = rhodesain (Trypanosoma brucei rhodesiense, UniProt Q95PM0); assay: biochemical; settings: read-out: rhodesain inhibition kinetics kinact/Ki
[1] = test system: T. brucei brucei parasites
[2] = test system: T. brucei brucei parasites; assay: microbe, parasite or virus in culture; settings: Trypanosoma brucei, read-out: parasite growth inhibition GI50 T.b.b parasites
cruzain = cruzain (Trypanosoma cruzi, UniProt P25779); settings: initial survey of non-peptidic P2/P3 moieties
Chain of cruzain (P25779 123-467): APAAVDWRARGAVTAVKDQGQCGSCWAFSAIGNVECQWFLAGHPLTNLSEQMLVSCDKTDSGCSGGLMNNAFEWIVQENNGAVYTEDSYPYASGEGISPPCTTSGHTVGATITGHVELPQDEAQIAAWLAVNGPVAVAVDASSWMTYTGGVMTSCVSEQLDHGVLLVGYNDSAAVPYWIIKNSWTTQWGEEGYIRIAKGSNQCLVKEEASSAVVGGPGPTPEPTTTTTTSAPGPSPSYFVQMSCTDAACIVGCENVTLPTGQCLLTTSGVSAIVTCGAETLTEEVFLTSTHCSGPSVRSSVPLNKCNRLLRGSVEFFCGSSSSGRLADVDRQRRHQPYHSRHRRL

Jurkat cells = settings: at 10 uM

Chain of rhodesain (Q95PM0 1-450): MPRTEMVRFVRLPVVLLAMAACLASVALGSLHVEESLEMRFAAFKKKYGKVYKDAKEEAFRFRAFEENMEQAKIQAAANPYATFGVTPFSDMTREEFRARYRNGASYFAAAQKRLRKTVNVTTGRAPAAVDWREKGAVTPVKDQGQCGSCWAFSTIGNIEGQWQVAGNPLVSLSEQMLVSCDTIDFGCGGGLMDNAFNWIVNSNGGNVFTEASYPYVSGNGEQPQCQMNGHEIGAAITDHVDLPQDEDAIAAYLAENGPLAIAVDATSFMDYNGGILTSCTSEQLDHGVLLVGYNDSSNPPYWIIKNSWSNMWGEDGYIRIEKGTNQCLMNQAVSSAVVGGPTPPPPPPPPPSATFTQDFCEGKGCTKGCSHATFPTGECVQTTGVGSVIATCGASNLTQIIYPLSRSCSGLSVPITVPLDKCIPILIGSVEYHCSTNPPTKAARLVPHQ

SMILES	IC50 (in vitro)	kinact/KI (rhodesain)	effect against cultured parasites (in words) [1]	other results
Cc1nc(-c2cnccn2)sc1C(=O)N[C@H](/C=C/S(=O)(=O)c1ccccc1)CCc1ccccc1 [3c]	> 100 µM	25200 M⁻¹ s⁻¹	antiparasitic effects at low micromolar concentration	–
O=C(N[C@H](/C=C/S(=O)(=O)c1ccccc1)CCc1ccccc1)[C@@H]1CCCC[C@H]1C(=O)c1ccc(Cl)cc1 [7a]	> 100 µM	9750 M⁻¹ s⁻¹	–	GI50 [2]: 12 µM
CC(C)(C)c1cc(C(=O)N[C@H](/C=C/S(=O)(=O)c2ccccc2)CCc2ccccc2)n(Cc2ccccc2)n1 [compound 6]	–	–	–	enzyme activity (in words) (cruzain): ineffective
O=C(N[C@H](/C=C/S(=O)(=O)c1ccccc1)CCc1ccccc1)c1cc(-c2ccccc2)no1 [4a]	> 100 µM	3610 M⁻¹ s⁻¹	ineffective against cultured parasites	–
Cc1nc(-c2ccccc2)sc1C(=O)N[C@H](/C=C/S(=O)(=O)c1ccccc1)CCc1ccccc1 [3a]	> 100 µM	84000 M⁻¹ s⁻¹	ineffective against cultured parasites	–
CN1CCN(C(=O)N[C@@H](Cc2ccccc2)C(=O)N[C@H](/C=C/S(=O)(=O)c2ccccc2)CCc2ccccc2)CC1 [K-777 (1)]	–	–	–	cytotoxicity Jurkat cells, percent at single concentration (Jurkat cells): 3% at 10 uM
O=C(N[C@H](/C=C/S(=O)(=O)c1ccccc1)CCc1ccccc1)c1cc(-c2ccncc2)no1 [4b]	> 100 µM	8590 M⁻¹ s⁻¹	antiparasitic effects at low micromolar concentration	–
Cc1onc(-c2ccc(F)cc2)c1C(=O)N[C@H](/C=C/S(=O)(=O)c1ccccc1)CCc1ccccc1 [compound 5]	–	–	–	enzyme activity (in words) (cruzain): ineffective
O=C(N[C@H](/C=C/S(=O)(=O)c1ccccc1)CCc1ccccc1)[C@H]1CCCC[C@@H]1C(=O)c1ccc(Cl)cc1 [7b]	–	2160 M⁻¹ s⁻¹	–	–
O=C(N[C@H](/C=C/S(=O)(=O)c1ccccc1)CCc1ccccc1)c1cc(-c2cccnc2)no1 [4c]	> 100 µM	–	–	–
O=C(N[C@H](/C=C/S(=O)(=O)c1ccccc1)CCc1ccccc1)c1cc(-c2ccccn2)no1 [4d]	> 100 µM	7720 M⁻¹ s⁻¹	antiparasitic effects at low micromolar concentration	–
Cc1nc(-c2cccnc2)sc1C(=O)N[C@H](/C=C/S(=O)(=O)c1ccccc1)CCc1ccccc1 [3b]	–	–	antiparasitic effects at low micromolar concentration	–
